According to PMC5059489, “Mechanistic evaluation and transcriptional signature of a glutathione S-transferase omega 1 inhibitor” (Nature Communications, 2016):
Several values for one entry are separate records, joined by “and”; a condition that tells them apart may be missing. Identical values can stand only once.

Assays:
GSTO1 [1] = biological target: T1, GSTO1 (Homo sapiens, UniProt P78417); assay: In-gel fluorescence competitive CMFDA binding assay, recombinant GSTO1; conditions: inhibition of CMFDA binding
T1 sequence (P78417 1-241): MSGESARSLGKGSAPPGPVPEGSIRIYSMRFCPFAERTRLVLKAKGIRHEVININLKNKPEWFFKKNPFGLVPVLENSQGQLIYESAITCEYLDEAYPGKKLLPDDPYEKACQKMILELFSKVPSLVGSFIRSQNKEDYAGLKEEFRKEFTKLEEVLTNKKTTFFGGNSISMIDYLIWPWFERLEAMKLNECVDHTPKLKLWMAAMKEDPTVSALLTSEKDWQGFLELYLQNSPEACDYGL
Source text: (§1) Primary screening of GSTO inhibitors was based on competitive inhibition of CMFDA binding to endogenous GSTO. Briefly, HCT116^p53+/+ cells (4 × 10^4 per well) were coated in a 12-well plate. […] Cells were then washed with PBS and lysed using Cell Lytic M buffer (Sigma). […] Gels were immediately scanned on a Typhoon variable mode imager (Amersham Bioscience). Quantification of fluorescent band intensity was done using Image Quant 5.2 software.

HCT116p53+/+ cell = assay: MTT cell proliferation at single concentration; type: cell-based, human
Experimental: Cell proliferation was assessed by a MTT assay. Cancer cells were seeded in 96-well microtitre plates and, after overnight attachment, treated with GSTO1 inhibitors. After 72 h, MTT solution (3 mg ml^−1; 20 μl) was added to each well and cells were incubated for 3 h at 37 °C. After incubation, media from each well was removed and the dark blue formazan crystals formed by live cells were dissolved in DMSO (150 μl per well). The absorbance intensity was measured at 570 nm on a microplate reader (Molecular Devices, Sunnyvale, CA, USA). Cell viability after 24 h treatment was assessed using ApoTox-Glo triplex assay (Promega) according to the manufacturer's protocol. At least three independent dose–response experiments with each concentration tested in triplicate were performed for each cell line.

GSTO1 [2] = biological target: T1, GSTO1; assay: GSTO1 substrate assay (reduction of 4-NPG); conditions: for IC50: read-out: GSTO substrate assay IC50, cluster screening tables
Experimental: For activity screening, we adapted a GSTO1 substrate assay that relies on the quantification of the reduction of S-(4-nitrophenacyl)glutathione (4-NPG), a GSTO1-specific substrate[17], using recombinant human GSTO1 in a high-throughput screening format.
Enzyme activity was measured by monitoring the reduction of 4-NPG to 4-nitroacetophenone by GSTO1.

endogenous GSTO1 = biological target: T2, endogenous GSTO1 (Homo sapiens, UniProt P78417); assay: In-gel fluorescence competitive CMFDA binding assay, endogenous GSTO1 in HCT116; conditions: 10 µM; inhibition of CMFDA binding, HCT116
T2 sequence (P78417 1-241): T1 sequence (P78417 1-241)
Source text: as §1

Structure (SMILES) | GSTO binding assay (% Inhibition at 10 µM) Recombinant (GSTO1 [1]) | GSTO substrate assay % Inhibition at 10 µM (GSTO1 [2]) | GSTO binding assay (% Inhibition at 10 µM) Endogenous (endogenous GSTO1) | IC50 (GSTO1 [2]) | % Inhibition of HCT116p53+/+ cell proliferation at 10 µM (HCT116p53+/+ cell)
O=C(CCl)Nc1cc(C(F)(F)F)ccc1N1CCCC1 [C1-17] | -4.1% | 88.5% | -9.5% | – | 94.8% and 91%
CC(=O)N1CCc2cc(NC(=O)CCl)ccc21 [C1-22] | 25.1% | 41.4% | 49.0% | – | 80.8% and 86%
O=C(CCl)NNc1c(Cl)cc(Cl)cc1Cl [C3-17] | 57.6% | 61.9% | 39.3% | – | 7.4%
O=C(CCl)NNC(=O)c1cc2c(s1)CCCC2 [C3-23] | -4.1% | -3.5% | -11.7% | – | 3.7%
O=C(CCl)NCCCSc1ccccc1 [C3-14] | 38.8% | 78.4% | 56.4% | – | 28.5%
CC(C)C(NC(=O)CCl)c1ccc2c(c1)OCCO2 (stereo not shown) [C3-8] | -4.9% | 16.5% | 33.4% | – | 91.2% and 77.9%
Cc1cc(S(=O)(=O)N(C)C)cc(NC(=O)CCl)c1C [C1-26] | 51.4% | 31.1% | 48.9% | – | 13.2%
CCN1CCC(NC(=O)CCl)CC1 [C2-1] | -0.8% | 54.8% | 45.0% | – | 65.6% and 62.7%
CC(=O)c1cc2c(cc1NC(=O)CCl)OCO2 [C1-9] | 56.5% | 12.5% | 39.3% | – | -1.2%
COc1cc(CCNC(=O)CCl)ccc1OC(F)F [C3-11] | 10.1% | 9.8% | 45.6% | – | 8.1% and 16.1%
O=C(CCl)Nc1ccc(Oc2ccc(Br)cc2)cc1 [C1-7] | 75.6% | 77.7% | 56.6% | 0.162 µM | 29.6%
O=C(CCl)N(NC(=O)P(=O)(N1CCOCC1)N1CCOCC1)c1ccc(Br)cc1 [C4-20] | 9.3% | -7.3% | 27.6% | – | 10.4% and 6.3%
O=C(CCl)Nc1cc2c(cc1Cl)OCCCO2 [C1-11] | 55.2% | 77.7% | 58.6% | 1.16 µM | 63.4% and 65.6%
O=C(CCl)Nc1nc2cc3c(cc2s1)OCCO3 [C2-27] | 69.0% | 85.1% | 59.6% | 8.67 µM | 42.6% and 38.2%
O=C(CCl)Nc1cc([N+](=O)[O-])ccc1Nc1ccc(F)cc1 [C1-4] | 81.5% | 92.5% | 31.8% | – | 80.6%
CN(CCCNC(=O)CCl)c1ccccc1 [C3-16] | 23.7% | 83.1% | 45.4% | – | 28.7%
Cc1c(NC(=O)c2c(NC(=O)CCl)sc3c2CCCC3)c(=O)n(-c2ccccc2)n1C [C2-19] | 51.8% | 1.2% | 58.6% | – | 52.7% and 40.5%
C=CCSc1ccccc1NC(=O)CCl [C1-5] | 52.9% | 96.3% | 22.9% | – | -3.8% and -2.6%
CCN(CC)S(=O)(=O)c1ccc(CNC(=O)CCl)cc1 [C3-2] | 63.3% | 86.4% | 63.6% | 1.48 µM | 55.3% and 49.6%
O=C(CCl)Nc1ccnn1Cc1cccc(Cl)c1 [C2-7] | 56.0% | 79.7% | 55.3% | 0.598 µM | 85.7% and 91%

More lines, main results first:

GSTO binding assay (% Inhibition at 10 µM) Recombinant (GSTO1 [1]) | GSTO substrate assay % Inhibition at 10 µM (GSTO1 [2]) | GSTO binding assay (% Inhibition at 10 µM) Endogenous (endogenous GSTO1) | IC50 (GSTO1 [2]) | Structure (SMILES) | % Inhibition of HCT116p53+/+ cell proliferation at 10 µM (HCT116p53+/+ cell)
9.8% | 23.3% | 20.6% | – | Cc1cccc(C(O)(C(=O)NN(C(=O)CCl)C2CCCCC2)c2cccc(C)c2)c1 [C4-21] | 50.6% and 54.9%
16.6% | 36.3% | 55.3% | – | CC(NC(=O)CCl)C12CC3CC(CC(C3)C1)C2 (stereo not shown) [C3-33] | 24.7% and 38.5%
65.8% | 98.2% | 34.0% | – | O=C(CCl)N(Cc1ccccc1)Cc1ccco1 [C4-15] | -6.8% and -5.5%
68.6% | 1.0% | 22.7% | – | O=C(CCl)N1N=C(c2cccs2)CC1c1ccco1 (stereo not shown) [C5-22] | 41.2%
54.9% | 83.7% | 69.2% | 4.11 µM | NC(=O)C1CN(C(=O)CCl)c2ccccc2O1 (stereo not shown) [C5-24] | 79.8% and 87.3%
59.5% | 97.2% | 53.0% | 0.237 µM | CN(CC1COc2ccccc2O1)C(=O)CCl (stereo not shown) [C4-8] | 70.7%
60.0% | 103.4% | 51.8% | 2.36 µM | CCN(Cc1ccc2c(c1)OCO2)C(=O)CCl [C4-11] | 2.8%
15.1% | 42.0% | 44.1% | – | CC(C)C(NC(=O)CCl)c1cccs1 (stereo not shown) [C3-28] | 48.5% and 48.7%
9.4% | 59.8% | 61.5% | – | O=C(CCl)N1CCN(c2ccccc2F)CC1 [C5-3] | 28.2%
52.5% | 58.2% | 66.2% | 0.559 µM | CC(C)C(C#N)N1CCN(C(=O)CCl)CC1 (stereo not shown) [C5-2] | 40.2% and 61.1%
5.1% | 27.2% | 7.3% | – | CCN(CC(=O)NC1CCS(=O)(=O)C1)C(=O)CCl (stereo not shown) [C4-13] | 62.3% and 67.3%
50.9% | 78.6% | 41.7% | – | O=C(CCl)NCCC12CC3CC(CC(C3)C1)C2 [C3-34] | -2.4%
57.7% | 5.7% | 62.9% | – | N#CC(c1cccs1)N1CCN(C(=O)CCl)CC1 (stereo not shown) [C5-11] | 19.6%
46.7% | 73.0% | 88.9% | – | CC(NC(=O)CCl)c1cc2ccccc2o1 (stereo not shown) [C3-29] | 89.7%
